The test system of one series is Spodoptera littoralis. The conditions noted are these: cited from earlier work.
The next series is described as follows: in vitro. The conditions noted are these: African green monkey (Cercopithecus aethiops).
The next series relates to wt-YFV. Format: cell-based, yellow fever virus.
Series [1] relates to herpes simplex virus (type 1). The conditions noted are these: cited from earlier work.
The subject of the next series is ZIKV. The conditions noted are these: mouse, in vivo; cited from earlier work.
In series [2] the test system is dengue virus type 2 (DENV-2). The conditions noted are these: cited from earlier work.
For a further series, the system named is Zika virus (ZIKV). The conditions noted are these: cited from earlier work.

For the compound `COc1cc2c(cc1OC)[C@@H]1[C@H](O)[C@@H](OC)[C@H](OC(C)=O)C3=CCN(C2)[C@H]31` [3-O-acetyl-narcissidine, 3-O-acetylnarcissidine], in the series with Spodoptera littoralis, the antifeedant effect result is given as “exhibited an antifeedant effect”.

As for `COc1c2c(cc3c1OCO3)[C@@]13CCN(C2)[C@@H]1CC[C@H](O)[C@@H]3O` [Bulbisine, bulbisine], the CC50 in “in vitro” was determined as 123 µM. In addition, the “antiviral activity against wt-YFV” value with wt-YFV is on record as “did not reveal significant antiviral activity”.

In the series “in vitro”, `C[n+]1cccc(C(=O)[O-])c1` [Trigonelline, trigonelline] had a CC50 of approximately 1000 µM. The “inhibition of survival of herpes simplex virus (type 1)” value in series [1] is “significantly inhibited the survival”. Also, in the series with wt-YFV, the “antiviral activity against wt-YFV” value is listed as “did not reveal significant antiviral activity”.

Consider `N=C(N)NCCC[C@H](N)C(=O)O` [arginine], for which, in “in vitro”, the CC50 is approximately 1000 µM. Also, the “antiviral activity against wt-YFV” value in the series on wt-YFV is listed as “did not reveal significant antiviral activity”.

Compound `NC(=O)C[C@H](N)C(=O)O` [asparagine] came in with a CC50 in the series “in vitro” of approximately 1000 µM. Further, the “antiviral activity against wt-YFV” value with wt-YFV is “did not reveal significant antiviral activity”.

As to `N[C@@H](CCC(=O)O)C(=O)O` [glutamic acid], in the series with wt-YFV, the “antiviral activity against wt-YFV” value is reported as “did not reveal significant antiviral activity”.

On to `O[C@H]1[C@H]2c3cc4c(cc3CN3CCC(=C[C@@H]1O)[C@H]23)OCO4` [lycorine], for which, in the series with ZIKV, the mortality result is listed as “reduced mortality” and the “viral load in the blood” value is “lower viral load in the blood”. Further, in series [2], the “antiviral activity against DENV-2” value is on record as “exhibits antiviral activity”. Further, the “antiviral activity against ZIKV” value with Zika virus (ZIKV) was “exhibits antiviral activity”.

Turning to `N[C@@H](Cc1c[nH]c2ccccc12)C(=O)O` [tryptophan], in “in vitro”, the CC50 stood at 578 µM. The “antiviral activity against wt-YFV” value with wt-YFV is recorded as “did not reveal significant antiviral activity”.

The record behind these values is article PMC12608337 (Molecules, 2025).
